{"source": "patent US8278040B2", "about": "“Optically responsive and mechanically tunable colloid-in-liquid crystal gels” (priority 2008, dated 2012)", "origin": "cited, not measured here", "tested_on": "live cells"}
{"smiles": "CCCCCc1ccc(-c2ccc(C#N)cc2)cc1", "note": "[5CB, 4-cyano-4′-pentylbiphenyl]", "values": [{"measurement": "toxicity to living cells (stated)", "setting": "general statement, criteria of Luk et al.", "value": "cytotoxic"}, {"measurement": "cell death on direct contact with live cells", "setting": "placed into direct contact with live cells", "value": "cause cell death within a short time period"}]}
